Source: patent US12479799B2, “Bioconjugation reagent and methods” (Universiteit Gent, priority 2019, dated 2025)

Test: Glutathione exchange experiment (stability towards competing sulfhydryl groups, RP-HPLC)
Assay type: physicochemical
Details: 0.1 M sodium phosphate buffer pH 7, 10 equiv of glutathione, 37° C., 96 hours
Protocol: This example provides a stability experiment of the compound of the invention towards competing sulfhydryl groups.
Compound 4aa was incubated in a 0.1 M sodium phosphate buffer at pH 7 with 10 equiv of glutathione, incubated at 37° C. and shaken for 96 hours. The stability was checked using RP-HPLC [Phenomenex Luna C18 column using a flow rate of 1 mL/min; H2O method: 3 minutes column flushing with 100% H2O, then a gradient from 0 to 100% ACN in 20 minutes, followed by 5 minutes of flushing with 100% ACN]. […] Representative HPLC chromatogram is shown (FIG. 7).

Row | GSH exchange reaction | stability of conjugated compound in presence of glutathione | Compound
1 | no GSH exchange reaction takes place | – | 1-benzyl-5-hydroxy-4-((2-hydroxyethyl)thio)-5-methylpyrrolidin-2-one [Compound 4aa]
2 | – | stable | CC1(O)C(SCCO)CC(=O)N1Cc1ccccc1 (centres unmarked) [4′aa, 1-benzyl-5-hydroxy-4-((2-hydroxyethyl)thio)-5-methylpyrrolidin-2-one]
